Laboratory results from PubChem BioAssay (NCI).
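Interpolation was linear, between the two tested concentrations surrounding the appropriate level; five concentrations were tested over 48 hours in 96-well plates. The concentration for 50% growth inhibition is given as GI50. TGI: concentration producing complete growth inhibition.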

Assays:
Test in all cases: DTP human tumour cell line panel, 48 h
786-0 renal = test system: 786-0 renal
A498 renal = test system: A498 renal
A549 NSCLC = test system: A549 NSCLC
ACHN renal = test system: ACHN renal
BT-549 breast = test system: BT-549 breast
CAKI-1 renal = test system: CAKI-1 renal
CCRF-CEM leukemia = test system: CCRF-CEM leukemia
COLO 205 colon = test system: COLO 205 colon
DU-145 prostate = test system: DU-145 prostate
EKVX NSCLC = test system: EKVX NSCLC
HCC-2998 colon = test system: HCC-2998 colon
HCT-116 colon = test system: HCT-116 colon
HCT-15 colon = test system: HCT-15 colon
HL-60(TB) leukemia = test system: HL-60(TB) leukemia
HOP-62 NSCLC = test system: HOP-62 NSCLC
HOP-92 NSCLC = test system: HOP-92 NSCLC
HS 578T breast = test system: HS 578T breast
HT29 colon = test system: HT29 colon
IGROV1 ovarian = test system: IGROV1 ovarian
K-562 leukemia = test system: K-562 leukemia
KM12 colon = test system: KM12 colon
M14 melanoma = test system: M14 melanoma
MCF7 breast = test system: MCF7 breast
MDA-MB-231 breast = test system: MDA-MB-231 breast
MDA-MB-435 = test system: MDA-MB-435
MOLT-4 leukemia = test system: MOLT-4 leukemia
NCI-H226 lung = test system: NCI-H226 lung
NCI-H23 lung = test system: NCI-H23 lung
NCI-H460 lung = test system: NCI-H460 lung
NCI-H522 lung = test system: NCI-H522 lung
NCI/ADR-RES ovarian = test system: NCI/ADR-RES ovarian
OVCAR-4 ovarian = test system: OVCAR-4 ovarian
OVCAR-5 ovarian = test system: OVCAR-5 ovarian
OVCAR-8 ovarian = test system: OVCAR-8 ovarian
PC-3 prostate = test system: PC-3 prostate
RPMI-8226 leukemia = test system: RPMI-8226 leukemia
RXF 393 renal = test system: RXF 393 renal
SF-268 CNS = test system: SF-268 CNS
SF-539 CNS = test system: SF-539 CNS
SK-MEL-2 melanoma = test system: SK-MEL-2 melanoma
SK-MEL-28 melanoma = test system: SK-MEL-28 melanoma
SK-MEL-5 melanoma = test system: SK-MEL-5 melanoma
SK-OV-3 ovarian = test system: SK-OV-3 ovarian
SN12C renal = test system: SN12C renal
SNB-19 CNS = test system: SNB-19 CNS
SR leukemia = test system: SR leukemia
SW-620 colon = test system: SW-620 colon
T-47D breast = test system: T-47D breast
U251 CNS = test system: U251 CNS
UACC-257 melanoma = test system: UACC-257 melanoma
UACC-62 melanoma = test system: UACC-62 melanoma
UO-31 renal = test system: UO-31 renal

## Nc1ccc(-c2nnc(SCc3ccc(O)c4ncccc34)n2-c2ccccc2)cc1
786-0 renal
  GI50: 238 nM
  TGI: > 100000 nM
A498 renal
  GI50: 933 nM
  TGI: > 24600 nM
A549 NSCLC
  GI50: 40.3 nM
  TGI: > 100000 nM
ACHN renal
  GI50: 63.9 nM
BT-549 breast
  GI50: 29.1 nM
  TGI: > 100000 nM
CAKI-1 renal
  GI50: 62.7 nM
  TGI: > 100000 nM
CCRF-CEM leukemia
  GI50: 36.8 nM
  TGI: > 100000 nM
COLO 205 colon
  GI50: 1010 nM
  TGI: 3420 nM
DU-145 prostate
  GI50: 33.9 nM
  TGI: > 100000 nM
EKVX NSCLC
  GI50: 415 nM
  TGI: > 100000 nM
HCC-2998 colon
  GI50: 58.3 nM
  TGI: > 100000 nM
HCT-116 colon
  GI50: < 17.2 nM
  TGI: > 37400 nM
HCT-15 colon
  GI50: 49.8 nM
  TGI: > 100000 nM
HL-60(TB) leukemia
  GI50: 40.5 nM
  TGI: > 100000 nM
HOP-62 NSCLC
  GI50: 66.1 nM
  TGI: > 100000 nM
HOP-92 NSCLC
  TGI: 20.3 nM
HS 578T breast
  GI50: 47.8 nM
  TGI: > 100000 nM
HT29 colon
  GI50: 890 nM
  TGI: > 100000 nM
IGROV1 ovarian
  GI50: 49.7 nM
  TGI: > 100000 nM
K-562 leukemia
  GI50: 15.2 nM
  TGI: > 100000 nM
KM12 colon
  GI50: 50.4 nM
  TGI: > 100000 nM
M14 melanoma
  GI50: 40.2 nM
  TGI: 4300 nM
MCF7 breast
  GI50: 28.7 nM
  TGI: > 100000 nM
MDA-MB-231 breast
  GI50: 69.5 nM
  TGI: 98800 nM
MDA-MB-435
  GI50: 32.1 nM
  TGI: > 100000 nM
MOLT-4 leukemia
  GI50: 48.5 nM
  TGI: > 100000 nM
NCI-H226 lung
  GI50: 1150 nM
  TGI: > 100000 nM
NCI-H23 lung
  GI50: 32.2 nM
  TGI: > 100000 nM
NCI-H460 lung
  GI50: 19 nM
  TGI: > 33000 nM
NCI-H522 lung
  GI50: 26.8 nM
  TGI: 6810 nM
NCI/ADR-RES ovarian
  GI50: 2290 nM
  TGI: > 100000 nM
OVCAR-4 ovarian
  GI50: 68.8 nM
  TGI: > 100000 nM
OVCAR-5 ovarian
  GI50: 290 nM
  TGI: > 100000 nM
OVCAR-8 ovarian
  GI50: 38.7 nM
  TGI: > 100000 nM
PC-3 prostate
  GI50: 17 nM
  TGI: > 100000 nM
RPMI-8226 leukemia
  GI50: 24.4 nM
  TGI: > 100000 nM
RXF 393 renal
  GI50: 81.6 nM
  TGI: > 100000 nM
SF-268 CNS
  GI50: 45.2 nM
  TGI: > 100000 nM
SF-539 CNS
  GI50: 48 nM
  TGI: > 100000 nM
SK-MEL-2 melanoma
  GI50: 64.4 nM
  TGI: 4840 nM
SK-MEL-28 melanoma
  GI50: 72.4 nM
  TGI: > 100000 nM
SK-MEL-5 melanoma
  GI50: 25.2 nM
  TGI: 80.4 nM
SK-OV-3 ovarian
  GI50: 118 nM
  TGI: 911 nM
SN12C renal
  GI50: 31.8 nM
  TGI: > 100000 nM
SNB-19 CNS
  GI50: 32.3 nM
  TGI: > 100000 nM
SR leukemia
  GI50: 44.1 nM
  TGI: > 100000 nM
SW-620 colon
  GI50: 45.4 nM
  TGI: > 100000 nM
T-47D breast
  GI50: 73.5 nM
  TGI: > 100000 nM
U251 CNS
  GI50: 25.4 nM
  TGI: > 100000 nM
UACC-257 melanoma
  GI50: 62.2 nM
UACC-62 melanoma
  GI50: 65 nM
  TGI: 13200 nM
UO-31 renal
  GI50: 140 nM
  TGI: > 100000 nM
